From patent publication US8722052B2, “Vaccinia virus protein A46 peptide and use thereof” (priority 2008, dated 2014)
“And” between values parts separate entries of the source, which are not always exact repeats. Equal entries are not always repeated. Square brackets hold non-standard residues; d marks the D form. Ends that are not written are not given here.

System: TLR4
Experiment: LPS-induced TNFα in primary human PBMC, ELISA
Assay type: cell-based
Details: peptide 1, 5 or 25 μM 1 h before 10 ng/ml LPS, 6 h
Method: FIGS. 13A and B are bar charts showing the effect of A467 and A464 on LPS-induced TNFα production and on cell viability in primary human cells. Peripheral blood mononuclear cells (PBMCs) were seeded in 96 well plates (1 ×10^6 cells/ml) 24 hours before treatment. A467 (SEQ ID NO. 23) and A464 (SEQ ID NO. 20) were added to the cells at 1, 5 and 25 μM 1 hour before stimulating with 10 ng/ml LPS. The peptides were added into the unstimulated control wells at 25 μM. Supernatants were collected 6 hours after stimulation and assayed for TNFα production by ELISA (A). The cells were assayed for viability by the MTT assay (B). No peptides were added to the control wells (black bars). Data is representative of at least three experiments each performed in triplicate and is expressed as mean±s.d;
FIGS. 14A and B are bar charts showing the comparison of the inhibitory effect of the L- and D-forms of A464 on LPS-induced TNFα in primary human and murine cells. PBMC (1×10^6 cells/ml, (A)) or immortalised murine macrophages (1.5×10^5 cells/ml, (B)) were seeded in 96 well plates 24 hours before treatment. L-form and D-form A464 peptides (with the 9R delivery peptide on the C-terminus, SEQ ID NO. 20) were added to the cells at a concentration of 1, 5 or 25 μM 1 hour before stimulating with 10 ng/ml LPS. Supernatants were collected 6 hours after stimulation and assayed for either human (A) or murine (B) TNFα production by ELISA. No peptides were added to the control wells (black bars). Data is representative of at least three experiments each performed in triplicate and is expressed as mean±s.d;
FIGS. 15A and B are bar charts showing the effect of the D-form A464 peptide with the TAT delivery sequence on LPS induced TNFα in primary human and murine cells. PBMC (A) and immortalised murine macrophages (B) were seeded in 96 well plates 24 hours before treatment. D-form of A467 (SEQ ID NO. 37) and A464 (SEQ ID NO. 36) with the TAT delivery sequence were added to the cells at a concentration of 1, 5 or 25 μM 1 hour before stimulating with 10 ng/ml LPS. The peptides were added into the unstimulated control wells at 25 μM. Supernatants were collected 6 hours after stimulation and assayed for either human (A) or murine (B) TNFα production by ELISA. No peptides were added to the control wells (black bars). Data is representative of at least three experiments each performed in triplicate and is expressed as mean±s.d;
FIGS. 16A and B are bar charts showing the effect of attaching 9R to the N-terminus of A464 on LPS-induced TNFα in primary human and murine cells. Immortalised murine macrophages (A) and PBMC (B) were seeded in 96 well plates 24 hours before treatment. L-form of A467 (SEQ ID NO. 39) and A464 (SEQ ID NO. 38) with the 9R-delivery sequence at the N-terminus were added to the cells at a concentration of 1, 5 or 25 μM 1 hour before stimulating with 10 ng/ml LPS. The peptides were added into the unstimulated control wells at […]. Supernatants were collected 6 hours after stimulation and assayed for either murine (A) or human (B) TNFα production by ELISA. No peptides were added to the control wells (black bars). Data is representative of at least three experiments each performed in triplicate and is expressed as mean±s.d;
FIGS. 17A and B are bar charts showing the effect of the D-form A464 with 9R at the N-terminus on LPS-induced TNFα in primary human and murine cells. Immortalised murine macrophages (A) and PBMC (B) were seeded in 96 well plates 24 hours before treatment. D-form of A467 (SEQ ID NO. 39) and A464 (SEQ ID NO. 38) peptides with the 9R-delivery sequence at N-terminus were added to the cells at a concentration of 1, 5 or 25 μM 1 hour before stimulating with 10 ng/ml LPS. The peptides were added into the unstimulated control wells at 25 μM. Supernatants were collected 6 hours after stimulation and assayed for either murine (A) or human (B) TNFα production by ELISA. No peptides were added to the control wells (black bars). […]

Sequence of TLR4 (O00206 24-839): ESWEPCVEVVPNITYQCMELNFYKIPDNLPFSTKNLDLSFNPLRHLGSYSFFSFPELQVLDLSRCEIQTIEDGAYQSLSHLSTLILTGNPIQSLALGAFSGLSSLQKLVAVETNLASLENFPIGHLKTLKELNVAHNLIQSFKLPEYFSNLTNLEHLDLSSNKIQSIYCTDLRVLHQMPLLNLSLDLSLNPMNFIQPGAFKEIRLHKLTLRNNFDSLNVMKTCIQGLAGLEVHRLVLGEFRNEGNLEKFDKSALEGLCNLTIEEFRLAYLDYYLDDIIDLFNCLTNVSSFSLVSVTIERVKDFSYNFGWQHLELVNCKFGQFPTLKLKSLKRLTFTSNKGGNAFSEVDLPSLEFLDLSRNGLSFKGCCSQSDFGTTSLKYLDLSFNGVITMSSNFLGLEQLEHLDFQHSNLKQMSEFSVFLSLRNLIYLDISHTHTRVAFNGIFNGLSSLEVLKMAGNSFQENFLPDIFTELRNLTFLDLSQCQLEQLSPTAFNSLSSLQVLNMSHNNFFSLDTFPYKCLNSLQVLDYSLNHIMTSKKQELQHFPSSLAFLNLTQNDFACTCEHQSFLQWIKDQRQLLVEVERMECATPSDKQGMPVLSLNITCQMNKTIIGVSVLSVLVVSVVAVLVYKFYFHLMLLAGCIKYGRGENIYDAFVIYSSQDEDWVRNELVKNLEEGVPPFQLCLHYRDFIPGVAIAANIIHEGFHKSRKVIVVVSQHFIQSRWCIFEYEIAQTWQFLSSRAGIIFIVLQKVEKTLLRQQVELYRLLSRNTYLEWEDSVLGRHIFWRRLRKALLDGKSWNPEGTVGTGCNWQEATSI
Sequence of TLR4 (Q9Y6Y9 17-160 partner limits assumed): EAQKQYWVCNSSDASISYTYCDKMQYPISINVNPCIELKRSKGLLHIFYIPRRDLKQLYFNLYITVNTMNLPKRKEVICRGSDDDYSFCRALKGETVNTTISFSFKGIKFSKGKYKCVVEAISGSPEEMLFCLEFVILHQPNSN

Substance | inhibition of LPS-induced hTNFα production
9RN-A464 (RRRRRRRRRKYSFKLILAEY) [Peptide 9RN-A464] | inhibition was only observed from 5-25 μM
D-9RN-A464 ([dR][dR][dR][dR][dR][dR][dR][dR][dR][dK][dY][dS][dF][dK][dL][dI][dL][dA][dE][dY]) [Peptide D-9RN-A464] | inhibited TNFα only at concentration of 24 μM
KYSFKLILAEYRRRRRRRRR [Peptide A464] | significant inhibition of TLR4 by A464 (SEQ ID No. 20) at 1 μM and 5 μM A464 (SEQ ID No. 20) peptide almost completely blocked hTNFα production
